The structures appear in SMILES notation. A value given as a limit tells only on which side of the number the result lay.

These results are taken from patent publication EP4653437A2 (Innovo Therapeutics Inc., priority 2023, dated 2024).

This assay has as its target T1, human 15-PGDH (Homo sapiens, UniProt P15428).
T1 construct: purchased R&D System 5660-DH
T1 sequence (P15428 1-266): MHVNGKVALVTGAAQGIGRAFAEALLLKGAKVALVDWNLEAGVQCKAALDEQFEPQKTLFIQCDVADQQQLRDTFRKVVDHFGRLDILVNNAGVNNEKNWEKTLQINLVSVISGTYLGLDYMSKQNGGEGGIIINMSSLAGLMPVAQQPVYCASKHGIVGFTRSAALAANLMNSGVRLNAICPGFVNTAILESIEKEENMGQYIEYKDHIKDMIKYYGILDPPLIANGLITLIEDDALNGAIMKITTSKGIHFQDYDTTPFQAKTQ
In words: Evaluation of 15-PGDH inhibitory activity (fluorescence enzyme assay, NAD+/PGE2). It counts as biochemical. As to conditions: human 15-PGDH enzyme, fluorescence Vmax. The procedure:
15-PGDH inhibition activity of Example compounds was measured as follows. 6.7 ng of human 15-PGDH (R&D System# 5660-DH) enzyme (10 µL) was added to a black 96 well plate, 60 µL of buffer (50 mM Tris-HCl, pH 7.5, 0.01% Tween 20) was added, and 10 µL of 200 µM β-Nicotinamide adenine dinucleotide sodium salt (Sigma, Cat# N0632-5G) was added. 10 µL of (10x) compound solution in DMSO was added and reacted for 10 minutes at room temperature.
`Cn1ccc2ccc(-c3cccc4c(C(=O)N5CCCCC5)cnn34)cc2c1=O` [Example 135, 2-methyl-7-(3-(piperidine-1-carbonyl)pyrazolo[1,5-a]pyridin-7-yl)isoquinolin-1(2H)-one]: the 50% inhibitory concentration (IC50) was at most 100 nM.
As to `O=C(c1cnn2c(-c3ccc([N+](=O)[O-])cc3)cccc12)N1CCCCC1` [Example 13, (7-(4-nitrophenyl)pyrazolo[1,5-a]pyridin-3-yl)(piperidin-1-yl)methanone], the concentration for half-maximal inhibition (IC50) is at most 100 nM.
As to `COC(=O)c1ccc(-c2cccc3c(C(=O)N4CCCCC4)cnn23)cc1` [Example 11, methyl 4-(3-(piperidine-1-carbonyl)pyrazolo[1,5-a]pyridin-7-yl)benzoate], the IC50 is at most 100 nM.
Compound `Cc1cc(-c2cccc(Cl)c2)c2ncc(C(=O)N3CCCCC3)n2c1` [Example 165, (8-(3-chlorophenyl)-6-methylimidazo[1,2-a]pyridin-3-yl)(piperidin-1-yl)methanone] registered a 50% inhibitory concentration (IC50) of 100 to 1000 nM.
The compound `COc1ccc(-c2ccc3[nH]c(C(=O)N4CCCCC4)cc3n2)cc1OC` [Example 181, (5-(3,4-dimethoxyphenyl)-1H-pyrrolo[3,2-b]pyridin-2-yl)(piperidin-1-yl)methanone] registered a concentration for half-maximal inhibition (IC50) of 100 to 1000 nM.
For `O=C(c1cc2nc(-c3cccc(Cl)c3)ccc2[nH]1)N1CCCCC1` [Example 185, (5-(3-chlorophenyl)-1H-pyrrolo[3,2-b]pyridin-2-yl)(piperidin-1-yl)methanone], the IC50 was in the range of 100 to 1000 nM.
As for `Nc1ccc(-c2cccc3c(C(=O)N4CCCCC4)cnn23)cc1` [Example 14, (7-(4-aminophenyl)pyrazolo[1,5-a]pyridin-3-yl)(piperidin-1-yl)methanone], the IC50 was at most 100 nM.
Then `CC(=O)Nc1ccc(-c2cccc3c(C(=O)N4CCCCC4)cnn23)cc1` [Example 97, N-(4-(3-(piperidine-1-carbonyl)pyrazolo[1,5-a]pyridin-7-yl)phenyl)acetamide], with at most 100 nM.
Consider `CN1Cc2cc(-c3cccc4c(C(=O)N5CCCCC5)cnn34)ccc2C1=O` [Example 144, 2-methyl-5-(3-(piperidine-1-carbonyl)pyrazolo[1,5-a]pyridin-7-yl)isoindolin-1-one], for which the IC50 is at most 100 nM.
The compound `Cn1nccc1-c1cccc2c(C(=O)N3CCCCC3)cnn12` [Example 25, (7-(1-methyl-1H-pyrazol-5-yl)pyrazolo[1,5-a]pyridin-3-yl)(piperidin-1-yl)methanone] gave an IC50 of at most 100 nM.
Compound `O=C(c1cnn2c(-c3cccc([N+](=O)[O-])c3)cccc12)N1CCCCC1` [Example 5, (7-(3-nitrophenyl)pyrazolo[1,5-a]pyridin-3-yl)(piperidin-1-yl)methanone] showed an IC50 of at most 100 nM.
`O=C(c1cc2nc(-c3ccc(F)cc3)ccc2[nH]1)N1CCCCC1` [Example 182, (5-(4-fluorophenyl)-1H-pyrrolo[3,2-b]pyridin-2-yl)(piperidin-1-yl)methanone] yielded an IC50 of 100 to 1000 nM.
The compound `O=C(c1cc2c(-c3ccc4c(c3)OCO4)ncnn2c1)N1CCCCC1` [Example 176, (4-(benzo[d][1,3]dioxol-5-yl)pyrrolo[2,1-f][1,2,4]triazin-6-yl)(piperidin-1-yl)methanone] showed an IC50 above 1000 nM.
Regarding `O=C(c1cnn2c(-c3ccccc3)cccc12)C1CCCCC1` [Example 158, cyclohexyl(7-phenylpyrazolo[1,5-a]pyridin-3-yl)methanone], the IC50 lay within 100 to 1000 nM.
For the compound `O=C(c1cc2nc(-c3ccc4c(c3)OCO4)ncc2[nH]1)N1CCCCC1` [Example 187, (2-(benzo[d][1,3]dioxol-5-yl)-5H-pyrrolo[3,2-d]pyrimidin-6-yl)(piperidin-1-yl)methanone], the IC50 was in the range of 100 to 1000 nM.
`O=C(c1cc2c(-c3ccc4c(c3)OCO4)ncnc2[nH]1)N1CCCCC1` [Example 177, (4-(benzo[d][1,3]dioxol-5-yl)-7H-pyrrolo[2,3-d]pyrimidin-6-yl)(piperidin-1-yl)methanone] had an IC50 above 1000 nM.
`Cn1ccc2cc(-c3cccc4c(C(=O)N5CCCCC5)cnn34)ccc2c1=O` [Example 139, 2-methyl-6-(3-(piperidine-1-carbonyl)pyrazolo[1,5-a]pyridin-7-yl)isoquinolin-1(2H)-one] registered an IC50 of at most 100 nM.
On to `O=C(c1cnn2c(-c3ccc(C(F)(F)F)nc3Cl)cccc12)N1CCCCC1` [Example 272, (7-(2-chloro-6-(trifluoromethyl)pyridin-3-yl)pyrazolo[1,5-a]pyridin-3-yl)(piperidin-1-yl)methanone], for which the half-maximal inhibitory concentration (IC50) was at most 100 nM.
Turning to `O=C(c1cnn2cc(-c3cccc(Cl)c3)ccc12)N1CCCCC1` [Example 170, (6-(3-chlorophenyl)pyrazolo[1,5-a]pyridin-3-yl)(piperidin-1-yl)methanone], the IC50 is at most 100 nM.
Regarding `O=C(c1cncc(-c2cccc3c(C(=O)N4CCCCC4)cnn23)c1)N1CC2(CCC2)C1` [Example 43, (7-(5-(2-azaspiro[3.3]heptane-2-carbonyl)pyridin-3-yl)pyrazolo[1,5-a]pyridin-3-yl)(piperidin-1-yl)methanone], the concentration for half-maximal inhibition (IC50) was at most 100 nM.
Then `O=C(c1cnn2c(-c3coc4ccccc34)cccc12)N1CCCCC1` [Example 122, (7-(benzofuran-3-yl)pyrazolo[1,5-a]pyridin-3-yl)(piperidin-1-yl)methanone], with at most 100 nM; and `Nc1ccc(-c2cccn3c(C(=O)N4CCCCC4)cnc23)cc1` [Example 164, (8-(4-aminophenyl)imidazo[1,2-a]pyridin-3-yl)(piperidin-1-yl)methanone], with above 1000 nM.
`COc1ccc(-c2ccc3c(C(=O)N4CCCCC4)cnn3c2)cc1` [Example 171, (6-(4-methoxyphenyl)pyrazolo[1,5-a]pyridin-3-yl)(piperidin-1-yl)methanone] registered a half-maximal inhibitory concentration (IC50) of at most 100 nM.
In the case of `O=C(c1cncc(-c2cccc3c(C(=O)N4CCCCC4)cnn23)c1)N1CC(F)(F)C1` [Example 44, (3,3-difluoroazetidin-1-yl)(5-(3-(piperidine-1-carbonyl)pyrazolo[1,5-a]pyridin-7-yl)pyridin-3-yl)methanone], the IC50 is at most 100 nM.
Then `CC(C)(C)OC(=O)N1CCN(C(=O)c2cccc(-c3cccc4c(C(=O)N5CCCCC5)cnn34)c2)CC1` [Example 35, tert-butyl 4-(3-(3-(piperidine-1-carbonyl)pyrazolo[1,5-a]pyridin-7-yl)benzoyl)piperazine-1-carboxylate], with at most 100 nM; and `COc1cccc(-c2cccc3c(C(=O)N4CCCCC4)cnn23)c1` [Example 4, (7-(3-methoxyphenyl)pyrazolo[1,5-a]pyridin-3-yl)(piperidin-1-yl)methanone], with at most 100 nM; and `O=C(c1cc2nc(-c3ccoc3)ccc2[nH]1)N1CCCCC1` [Example 183, (5-(furan-3-yl)-1H-pyrrolo[3,2-b]pyridin-2-yl)(piperidin-1-yl)methanone], with above 1000 nM.
Then `O=C(c1cc2nc(-c3ccncc3)ccc2[nH]1)N1CCCCC1` [Example 184, piperidin-1-yl(5-(pyridin-4-yl)-1H-pyrrolo[3,2-b]pyridin-2-yl)methanone], with 100 to 1000 nM; and `CN1CCc2cc(-c3cccc4c(C(=O)N5CCCCC5)cnn34)ccc2C1=O` [Example 137, 2-methyl-6-(3-(piperidine-1-carbonyl)pyrazolo[1,5-a]pyridin-7-yl)-3,4-dihydroisoquinolin-1(2H)-one], with at most 100 nM; and `O=C(c1cnn2c(-c3ccccc3)cccc12)N1CCCCC1` [Example 1], with at most 100 nM.
In turn, `O=C(c1cc2nc(-c3ccc4ccccc4c3)ccc2[nH]1)N1CCCCC1` [Example 189, (5-(naphthalen-2-yl)-1H-pyrrolo[3,2-b]pyridin-2-yl)(piperidin-1-yl)methanone] came in with an IC50 above 1000 nM.
The compound `O=C(Cc1cccnc1)Nc1ccc(-c2cccc3c(C(=O)N4CCCCC4)cnn23)cn1` [Example 106, N-(5-(3-(piperidine-1-carbonyl)pyrazolo[1,5-a]pyridin-7-yl)pyridin-2-yl)-2-(pyridin-3-yl)acetamide] came in with an IC50 of at most 100 nM.
In turn, `O=C(c1cnc2c(-c3cccc(Cl)c3)cc(F)cn12)N1CCCCC1` [Example 167, (8-(3-chlorophenyl)-6-fluoroimidazo[1,2-a]pyridin-3-yl)(piperidin-1-yl)methanone] registered an IC50 of at most 100 nM.
Then `CC(=O)c1cnn2c(-c3ccc(C#N)cc3)cccc12` [Example 152, 4-(3-acetylpyrazolo[1,5-a]pyridin-7-yl)benzonitrile], with 100 to 1000 nM; and `O=C(c1cc2nc(-c3coc4ccccc34)ccc2[nH]1)N1CCCCC1` [Example 188, (5-(benzofuran-3-yl)-1H-pyrrolo[3,2-b]pyridin-2-yl)(piperidin-1-yl)methanone], with 100 to 1000 nM.
For `O=C(c1n[nH]c2c(-c3cccc(Cl)c3)cccc12)N1CCCCC1` [Example 161, (7-(3-chlorophenyl)-1H-indazol-3-yl)(piperidin-1-yl)methanone], the IC50 is above 1000 nM.
Consider `O=C(c1cnn2c(-c3cccc(Cl)c3)cccc12)N1CCCCC1` [Example 2, (7-(3-chlorophenyl)pyrazolo[1,5-a]pyridin-3-yl)(piperidin-1-yl)methanone], for which the IC50 was at most 100 nM.
Then `COc1ccc(-c2cccc3c(C(=O)N4CCCCC4)nnn23)cc1` [Example 168, (7-(4-methoxyphenyl)-[1,2,3]triazolo[1,5-a]pyridin-3-yl)(piperidin-1-yl)methanone], with 100 to 1000 nM.
